In one data set the test system is P. aeruginosa. The following applies: CAMHB; for MIC against P. aeruginosa: summary over the tested strains. The procedure: (§1) Broad-spectrum antimicrobial activity was evaluated using the broth microdilution assays against two different pathogens from four different species of bacteria (P. aeruginosa, S. aureus, K. pneumoniae, and E. coli) to determine if the cyclotides retained its potent activity. Broth microdilution assays were utilized to determine the minimum inhibitory concentrations (MICs) of our cyclotides according to the CLSI (formerly NCCLS) guidelines modifications as described below (40). The assay utilized cation-adjusted Mueller-Hinton broth (CAMHB) (Becton, Dickinson and Company, Franklin Lakes, NJ) which was prepared according to the manufacturer's instructions. Cyclotide solutions were prepared as 10× solutions in 0.01% acetic acid. Cyclotide were serially diluted two-fold at concentrations ranging from 25-0.05 μM that contained CAMHB and 0.04% bovine serum albumin (BSA) in polypropylene microtiter plates (Corning, Corning, NY). All bacteria were incubated overnight at 37° C. at 200 rpm in CAMHB and bacterial inoculum was adjusted with additional CAMHB to 0.5 McFarland standard through spectrophotometry at 600 nm. […] Study strains included a total of 20 P. aeruginosa and 20 methicillin resistant S. aureus strains from patients with cystic fibrosis at the Keck Medical Center of the University of Southern California. […] Colistin sulphate (Sigma-Aldrich, St Louis, MO) was used as a reference antibiotic for P. aeruginosa and E. coli, while vancomycin hydrochloride and meropenem trihydrate were used as reference antibiotics for S. aureus and K. pneumoniae.

Another data set relates to E. coli. The following applies: CAMHB. The procedure:
as §1

The next data set concerns K. pneumoniae. The conditions noted are these: CAMHB. The procedure: as §1
The test system of another data set is S. aureus. The conditions noted are these: CAMHB. The protocol: as §1
Data set [1] can be described thus: Maximum tolerated dose (MTD) toxicology study. An excerpt:
(§2) Colistin was used as a control antibiotic.[28] […] For this purpose, Applicant employed a P. aeruginosa bacterial peritonitis model.[29] This animal model is a well-established acute infection model and is commonly utilized as a common preclinical screening method for new antibiotics.[30] Peritonitis in Balb/c mice (n=10) was established by intraperitoneal injection of 1.5×10^7 colony forming units (CFU) per mouse of P. aeruginosa (Schroeter) Migula (ATCC 27853).
Maximum tolerated dose (MTD) toxicology Studies. The MTD was determined using two different endpoints: weight loss and clinical scoring. Clinical scores were evaluated through activity, appearance and body condition, similar to previously published literature (42). […] Any dose escalation that leads to moderate toxicity (clinical score of >2) was ceased and the dose prior served as the MTD. Mice were monitored every hour for 4 h after injection on the first day. After 24 h, mice were monitored twice daily for another two days until weight and clinical scores were returned to normal. Mice that met the criteria for moribund included a >20% weight loss and clinical score of >3 and were euthanized.

A further data set is described as follows: in vitro. The protocol:
This was accomplished by incubating the corresponding peptides in human serum at 37° C. The quantitative analysis of undigested polypeptides was performed using liquid chromatography coupled with tandem mass spectrometry (LC-MS/MS). MCoTI-cyclotides present a very rigid structure,[24] which makes them extremely stable to proteolytic degradation.
Human serum stability. […]. Peptides were dissolved in water at 10 mg/mL concentration. 150 μg of peptides (15 μL) were mixed with 500 μL of human serum and incubated at 37° C. Samples (30 μL) were taken at various time intervals (0-120 h) and serum proteins were precipitated using 180 μL of acetonitrile containing 0.1% TFA. After centrifugation the pellet was dissolved in 8 M GdmCl and the supernatant was lyophilized and re-dissolved in 5% acetonitrile in water containing 0.1% formic acid. Both the supernatant and solubilized pellet fractions were analyzed by HPLC and LC-MS/MS. Each experiment was done in triplicate.

Data set [2] concerns clinical isolates of methicillin-resistant S. aureus (MRSA). The following applies: MRSA clinical isolates, n=20. The procedure:
as §1

Data set [3] has as its system clinical isolates of P. aeruginosa. The conditions noted are these: clinical isolates, n=20. The protocol: as §1
Data set [4] relates to P. aeruginosa (Schroeter) Migula (ATCC 27853). As to the kind of experiment: P. aeruginosa-induced peritonitis murine model. Also noted: reference not given here. Format: in vivo, Balb/c mice. The conditions noted are these: single i.p. dose 15 mg/kg, 7 days.
Excerpt: as §2
P. aeruginosa-induced peritonitis murine model. Eight to 10-week-old Balb/c mice (Jackson Laboratory, Bar Harbor, ME) were housed five in a cage with standard chow and water ad libitum. To establish the model, 1.5×10^7 CFU of log-phase P. aeruginosa ATCC 27853 was injected intraperitoneally. […] Mice were monitored for 7 days and/or euthanized if any mice presented signs of moribundity.

Setting [5] is: S. aureus BAA977, clindamycin resistant strain.
Where [6] appears, read: S. aureus HH35, methicillin resistant strain.
Where [7] appears, read: S. aureus USA300, methicillin resistant strain.
Setting [8] is: summary over the tested strains.

Converted amounts (≈) assume the structure as drawn. Like-named read-outs stand apart in the source and are kept apart here. Positions of bridges follow the written chain, without caps; N, C: chain ends. Some results are limits rather than exact numbers.

In the case of `CC[C@H](C)[C@@H]1NC(=O)[C@@H]2CSSC[C@@H]3NC(=O)[C@H](C(C)C)NC(=O)CNC(=O)CNC(=O)CNC(=O)[C@H](CCCNC(=N)N)NC(=O)[C@H](CCCNC(=N)N)NC(=O)CNC(=O)[C@H](C(C)C)NC(=O)[C@@H]4CSSC[C@H](NC(=O)[C@H](CC(C)C)NC(=O)[C@H](CCCNC(=N)N)NC(=O)CNC(=O)CNC(=O)CNC(=O)[C@H](CO)NC(=O)CNC(=O)[C@H](CO)NC(=O)CNC(=O)[C@@H]5CSSC[C@H](NC(=O)[C@H](CC(=O)O)NC(=O)[C@H](CO)NC(=O)[C@H](CC(=O)O)NC(=O)[C@H](CCCNC(=N)N)NC(=O)[C@H](CCCNC(=N)N)NC(=O)[C@H](CSSC[C@H](NC1=O)C(=O)N[C@@H](CCCNC(=N)N)C(=O)NCC(=O)N[C@@H](CC(N)=O)C(=O)NCC(=O)N[C@@H](Cc1ccc(O)cc1)C(=O)N5)NC(=O)[C@H](CCCNC(=N)N)NC(=O)[C@H](CCC(N)=O)NC(=O)[C@H](CC(C)C)NC(=O)[C@H]([C@@H](C)CC)NC(=O)[C@H](CCCCN)NC(=O)[C@@H]1CCCN1C3=O)C(=O)N1CCC[C@H]1C(=O)NCC(=O)N[C@@H](C)C(=O)N2)C(=O)N[C@@H](Cc1ccc(O)cc1)C(=O)N[C@H]1CSSC[C@H](NC(=O)[C@H](Cc2ccccc2)NC(=O)[C@H](CCCNC(=N)N)NC(=O)[C@H](CCCNC(=N)N)NC(=O)[C@H](CCCNC(=N)N)NC1=O)C(=O)N[C@@H](C(C)C)C(=O)N4` [MCo-PG4], the minimal inhibitory concentration (MIC) in the data set on P. aeruginosa (P. aeruginosa PA27853) was 1.6 µM (≈ 8.99 µg/mL); against E. coli (E. coli DS377), 1.6 µM (≈ 8.99 µg/mL); with E. coli (E. coli K12), 1.6 µM (≈ 8.99 µg/mL); against K. pneumoniae (K. pneumoniae BAA1705), 12.5 µM (≈ 70.2 µg/mL); in the data set on K. pneumoniae (K. pneumoniae K6), 12.5 µM (≈ 70.2 µg/mL); against S. aureus (S. aureus 25973), 12.5 µM (≈ 70.2 µg/mL). Besides, the MIC with S. aureus (setting [5]), against S. aureus (setting [6]) and in the data set on S. aureus (setting [7]) was 12.5 µM (≈ 70.2 µg/mL) in each case. Besides, the “MIC against P. aeruginosa” value against P. aeruginosa was 1.6 µM (≈ 8.99 µg/mL).
Compound `CC(C)C[C@H](NC(=O)[C@H](CCCNC(=N)N)NC(=O)CNC(=O)CNC(=O)[C@@H](N)CCCNC(=N)N)C(=O)N[C@H]1CSSC[C@@H](C(=O)N[C@H](C(=O)NCC(=O)N[C@@H](CCCNC(=N)N)C(N)=O)C(C)C)NC(=O)[C@H](C(C)C)NC(=O)[C@@H]2CSSC[C@H](NC(=O)[C@H](Cc3ccc(O)cc3)NC1=O)C(=O)N[C@@H](CCCNC(=N)N)C(=O)N[C@@H](CCCNC(=N)N)C(=O)N[C@@H](CCCNC(=N)N)C(=O)N[C@@H](Cc1ccccc1)C(=O)N2` [PG-1, reference compound] showed a maximal tolerated dose (MTD) at 3 days in data set [1] (Balb/c, mouse, in vivo, ip) of 5 mg/kg. For the same compound, in the data set “in vitro” (37° C.), the “degradation in human serum within the first 24 h (in words)” value is “significant degradation”. The compound further yielded a metabolised at 24 h, 0.29 mg/mL in “in vitro” (human, human serum) of approximately 55%. This compound also had a half-life at 0.29 mg/mL in the data set “in vitro” (human, human serum, t1/2 in human serum, 37° C., LC-MS/MS) of 30 ± 3 h.
On to `CN[C@H](CC(C)C)C(=O)N[C@H]1C(=O)N[C@@H](CC(N)=O)C(=O)N[C@H]2C(=O)N[C@H]3C(=O)N[C@H](C(=O)N[C@H](C(=O)O)c4cc(O)cc(O)c4-c4cc3ccc4O)[C@H](O)c3ccc(c(Cl)c3)Oc3cc2cc(c3O[C@@H]2O[C@H](CO)[C@@H](O)[C@H](O)[C@H]2O[C@H]2C[C@](C)(N)[C@H](O)[C@H](C)O2)Oc2ccc(cc2Cl)[C@H]1O` [Vancomycin, reference compound], for which the “S. aureus MICrange” value in data set [2] fell in the range of 0.5 to 1.4 µM.
As for Colistin, the “maximum tolerated dose (well tolerated intraperitoneal dose)” value in data set [1] (Balb/c mice, single i.p. dose, endpoints weight loss and clinical score) is given as 15 mg/kg. Also, in data set [3], the “P. aeruginosa MIC50” value is not above 0.2 µM, the “P. aeruginosa MIC90” value is 0.4 µM and the “P. aeruginosa MICrange” value was not above 0.2 to 0.4 µM. Also, the “hazard ratio [HR] (survival)” value in data set [4] (12.3 μmol/kg, as printed in legend of FIG. 4) is 24.8. In addition, in data set [4], the “hazard ratio [HR] (survival)” value stood at 0.040.
“cyclo(GGVCPKILQRCRRDSDCPGACICRGNGYCGSGSGGCLCYCRRRFCVCVCRR) (disulfide 4-21, 11-23, 17-29, 36-49, 38-47, 40-45 (inferred); ring closure inferred) [MCo-PG3]”: the MIC against P. aeruginosa (P. aeruginosa PA27853) was 25 µM; against E. coli (E. coli K12) it was more than 25 µM; in the data set on K. pneumoniae (K. pneumoniae K6) it was more than 25 µM; against S. aureus (S. aureus 25973), more than 25 µM; in the data set with S. aureus (setting [5]), more than 25 µM; against S. aureus (setting [6]), more than 25 µM. Moreover, in the data set on P. aeruginosa, the “MIC against P. aeruginosa” value was determined as 25 µM. Also, in the data set with E. coli (setting [8]), the “MIC against E. coli” value is listed as “above 25 μM”. For the same compound, the “MIC against K. pneumoniae” value against K. pneumoniae (setting [8]) is on record as “above 25 μM”. In addition, the “MIC against S. aureus” value against S. aureus (setting [8]) is listed as “above 25 μM”.
“cyclo[GGVCPKILQRCRRDSDCPGACICRGNGYCGSGSGRLCYCRRRFCVCVGR] (cyclo(GGVCPKILQRCRRDSDCPGACICRGNGYCGSGSGRLCYCRRRFCVCVGR); not fully specified; printed as cyclo[GGVCPKILQRCRRDSDCPGACICRGNGYCGSGSGRLCYCRRRFCVCVGR]; cysteine pairing not given here) [MCo-PG5]”: the MIC was 3.1 µM with P. aeruginosa (P. aeruginosa PA27853); 3.1 µM with P. aeruginosa (P. aeruginosa PAO1); 1.6 µM with E. coli (E. coli DS377); 1.6 µM with E. coli (E. coli K12); 6.2 µM against K. pneumoniae (K. pneumoniae BAA1705); 6.2 µM in the data set on K. pneumoniae (K. pneumoniae K6). In addition, the minimal inhibitory concentration (MIC) against S. aureus (S. aureus 25973), with S. aureus (setting [5]), in the data set with S. aureus (setting [6]) and in the data set with S. aureus (setting [7]) was 12.5 µM in each case.

By MIC is commonly meant the smallest concentration in the dilution series that meets the test's criterion for growth inhibition. By MTD is commonly meant the largest dose that counted as tolerated. The half-life is the time needed for the level to fall by half in the phase considered.

The values above are taken from patent US20240092846A1, “ENGINEERED CYCLOTIDES WITH POTENT BROAD ANTIMICROBIAL ACTIVITY” (priority 2022, published 2024).
